The source made the active and inactive calls. The calls are words filed in the database; no cut-off is given here.
Key:
[1] = target: Amyloid-beta precursor protein (Homo sapiens) (UniProt P05067); assay: Photo-degradation of Amyloid beta (1 to 42) (unknown origin) assessed as disruption of Co2 induced aggregation at 66.7 uM irradiated with UVA-LED measured after 5 mins by immunoblotting analysis
HeLa [2] = assay: Dark toxicity in human HeLa cells assessed as reduction in cell viability; assay type: cell-based
[3] = target: Amyloid-beta precursor protein (Homo sapiens) (UniProt P05067); assay: Photo-degradation of Amyloid beta (1 to 42) (unknown origin) assessed as disruption of Co2 induced aggregation at 66.7 uM irradiated with UVA-LED for 1 hr by immunoblotting analysis
HeLa [4] = assay: Phototoxicity in human HeLa cells assessed as reduction in cell viability irradiated with UVA-LED measured after 60 mins; assay type: cell-based; details: 1 h

Chain of Amyloid-beta precursor protein (Homo sapiens) (P05067 whole entry): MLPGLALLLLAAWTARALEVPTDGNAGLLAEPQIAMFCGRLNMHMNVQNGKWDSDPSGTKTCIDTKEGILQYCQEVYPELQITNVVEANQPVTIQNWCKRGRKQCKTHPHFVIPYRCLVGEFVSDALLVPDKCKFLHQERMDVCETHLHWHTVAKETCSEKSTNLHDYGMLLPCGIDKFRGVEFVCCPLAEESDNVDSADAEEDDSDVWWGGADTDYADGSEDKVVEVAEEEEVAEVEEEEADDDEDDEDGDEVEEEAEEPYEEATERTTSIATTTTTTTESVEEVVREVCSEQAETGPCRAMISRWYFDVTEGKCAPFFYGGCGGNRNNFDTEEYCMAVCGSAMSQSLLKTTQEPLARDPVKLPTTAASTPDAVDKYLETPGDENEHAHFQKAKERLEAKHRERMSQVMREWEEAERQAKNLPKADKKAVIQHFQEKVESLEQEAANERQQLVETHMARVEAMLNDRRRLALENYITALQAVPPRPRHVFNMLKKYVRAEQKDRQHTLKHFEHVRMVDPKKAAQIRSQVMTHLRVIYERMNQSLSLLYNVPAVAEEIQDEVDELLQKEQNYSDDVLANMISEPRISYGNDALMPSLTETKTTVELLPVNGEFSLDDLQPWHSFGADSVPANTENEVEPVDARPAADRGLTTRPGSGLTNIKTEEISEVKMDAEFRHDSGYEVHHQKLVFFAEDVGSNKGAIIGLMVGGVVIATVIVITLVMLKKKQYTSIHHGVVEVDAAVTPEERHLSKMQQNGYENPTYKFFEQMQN

SMILES: CC[n+]1ccc(-c2ccc(-c3nc4ccccc4s3)cc2)cc1.[Br-]
- inhibition [1]: Active
- Activity (HeLa [2]): Non-Toxic
- inhibition [3]: Active
- Activity (HeLa [4]): Toxic

From ChEMBL document CHEMBL4823306, “Synthesis of D-π-A type benzothiazole-pyridinium salt composite and its application as photo-degradation agent for amyloid fibrils” (Bioorg Med Chem Lett, 2021)
